Values quoted from earlier work in US20040115263A1, “Use of bupropion for treating restless legs syndrome” (priority 2002, published 2004).

What was measured:
[1] = RLS patients

N[C@@H](Cc1ccc(O)c(O)c1)C(=O)O [L-dopa]
efficacy in treating RLS (L-dopa given with a peripheral carboxylase inhibitor at a 10:1 ratio, patients): effective
cases in which augmentation is a complicating feature (human, in vivo): 65-80%

CC(C)C[C@H]1C(=O)N2CCC[C@H]2[C@]2(O)O[C@](NC(=O)[C@@H]3C=C4c5cccc6[nH]c(Br)c(c56)C[C@H]4N(C)C3)(C(C)C)C(=O)N12 [Bromocriptine]
side effects reported [1]: transient nasal stuffiness and lightheadedness in one patient
